Source: ChEMBL document CHEMBL2331095, “Synthesis and biological activity of 5-chloro-N⁴-substituted phenyl-9H-pyrimido[4,5-b]indole-2,4-diamines as vascular endothelial growth factor receptor-2 inhibitors and antiangiogenic agents” (Bioorg Med Chem, 2013)

Tests used:
[1] = target: T1, Epidermal growth factor receptor (Homo sapiens, UniProt P00533); type: cell-based, A-431;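 further: human A431 cells pretreated 60 min before EGF stimulation, EGF-induced tyrosine phosphorylation read by ELISA after 10 min of activation, lower signal meaning inhibition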
T1 sequence (P00533 whole entry): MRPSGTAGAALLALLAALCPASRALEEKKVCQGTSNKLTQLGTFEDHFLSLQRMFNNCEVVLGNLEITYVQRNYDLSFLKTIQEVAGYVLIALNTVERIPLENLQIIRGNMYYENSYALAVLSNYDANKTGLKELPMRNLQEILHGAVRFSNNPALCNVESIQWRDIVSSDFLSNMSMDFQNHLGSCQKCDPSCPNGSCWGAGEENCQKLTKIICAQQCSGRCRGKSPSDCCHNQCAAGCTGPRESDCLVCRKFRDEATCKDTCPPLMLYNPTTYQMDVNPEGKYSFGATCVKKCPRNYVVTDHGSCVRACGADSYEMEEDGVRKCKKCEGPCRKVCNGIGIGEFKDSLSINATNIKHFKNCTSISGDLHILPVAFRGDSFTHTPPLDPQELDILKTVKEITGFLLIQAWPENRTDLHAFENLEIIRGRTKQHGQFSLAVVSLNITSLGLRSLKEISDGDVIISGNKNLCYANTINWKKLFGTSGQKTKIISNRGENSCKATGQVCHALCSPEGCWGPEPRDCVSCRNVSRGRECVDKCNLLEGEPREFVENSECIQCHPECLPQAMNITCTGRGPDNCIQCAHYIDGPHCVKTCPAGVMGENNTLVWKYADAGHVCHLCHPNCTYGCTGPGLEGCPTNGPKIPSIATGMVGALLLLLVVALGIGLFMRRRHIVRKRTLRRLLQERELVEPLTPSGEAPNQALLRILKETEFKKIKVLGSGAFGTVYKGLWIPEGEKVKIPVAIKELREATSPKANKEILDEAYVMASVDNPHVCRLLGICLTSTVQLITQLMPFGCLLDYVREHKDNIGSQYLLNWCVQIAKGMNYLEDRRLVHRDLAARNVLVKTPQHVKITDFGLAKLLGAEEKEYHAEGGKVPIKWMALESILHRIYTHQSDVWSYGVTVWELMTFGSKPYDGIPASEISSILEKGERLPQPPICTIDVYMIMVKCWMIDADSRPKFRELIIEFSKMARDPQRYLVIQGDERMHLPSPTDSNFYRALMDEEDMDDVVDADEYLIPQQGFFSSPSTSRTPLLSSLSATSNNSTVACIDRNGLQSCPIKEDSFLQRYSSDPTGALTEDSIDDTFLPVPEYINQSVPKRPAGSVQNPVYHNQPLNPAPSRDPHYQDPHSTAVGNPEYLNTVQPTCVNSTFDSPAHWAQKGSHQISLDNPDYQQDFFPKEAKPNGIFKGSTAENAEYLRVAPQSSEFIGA

[2] = target: Vascular endothelial growth factor receptor 2 (Homo sapiens, UniProt P35968); type: cell-based, U-251;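 further: human U251 cells, compound preincubated 60 min before VEGF stimulation, VEGF-induced VEGFR2 tyrosine phosphorylation measured by ELISA after 10 min, value is concentration inhibiting this phosphorylation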
Sequence of Vascular endothelial growth factor receptor 2 (P35968 whole entry): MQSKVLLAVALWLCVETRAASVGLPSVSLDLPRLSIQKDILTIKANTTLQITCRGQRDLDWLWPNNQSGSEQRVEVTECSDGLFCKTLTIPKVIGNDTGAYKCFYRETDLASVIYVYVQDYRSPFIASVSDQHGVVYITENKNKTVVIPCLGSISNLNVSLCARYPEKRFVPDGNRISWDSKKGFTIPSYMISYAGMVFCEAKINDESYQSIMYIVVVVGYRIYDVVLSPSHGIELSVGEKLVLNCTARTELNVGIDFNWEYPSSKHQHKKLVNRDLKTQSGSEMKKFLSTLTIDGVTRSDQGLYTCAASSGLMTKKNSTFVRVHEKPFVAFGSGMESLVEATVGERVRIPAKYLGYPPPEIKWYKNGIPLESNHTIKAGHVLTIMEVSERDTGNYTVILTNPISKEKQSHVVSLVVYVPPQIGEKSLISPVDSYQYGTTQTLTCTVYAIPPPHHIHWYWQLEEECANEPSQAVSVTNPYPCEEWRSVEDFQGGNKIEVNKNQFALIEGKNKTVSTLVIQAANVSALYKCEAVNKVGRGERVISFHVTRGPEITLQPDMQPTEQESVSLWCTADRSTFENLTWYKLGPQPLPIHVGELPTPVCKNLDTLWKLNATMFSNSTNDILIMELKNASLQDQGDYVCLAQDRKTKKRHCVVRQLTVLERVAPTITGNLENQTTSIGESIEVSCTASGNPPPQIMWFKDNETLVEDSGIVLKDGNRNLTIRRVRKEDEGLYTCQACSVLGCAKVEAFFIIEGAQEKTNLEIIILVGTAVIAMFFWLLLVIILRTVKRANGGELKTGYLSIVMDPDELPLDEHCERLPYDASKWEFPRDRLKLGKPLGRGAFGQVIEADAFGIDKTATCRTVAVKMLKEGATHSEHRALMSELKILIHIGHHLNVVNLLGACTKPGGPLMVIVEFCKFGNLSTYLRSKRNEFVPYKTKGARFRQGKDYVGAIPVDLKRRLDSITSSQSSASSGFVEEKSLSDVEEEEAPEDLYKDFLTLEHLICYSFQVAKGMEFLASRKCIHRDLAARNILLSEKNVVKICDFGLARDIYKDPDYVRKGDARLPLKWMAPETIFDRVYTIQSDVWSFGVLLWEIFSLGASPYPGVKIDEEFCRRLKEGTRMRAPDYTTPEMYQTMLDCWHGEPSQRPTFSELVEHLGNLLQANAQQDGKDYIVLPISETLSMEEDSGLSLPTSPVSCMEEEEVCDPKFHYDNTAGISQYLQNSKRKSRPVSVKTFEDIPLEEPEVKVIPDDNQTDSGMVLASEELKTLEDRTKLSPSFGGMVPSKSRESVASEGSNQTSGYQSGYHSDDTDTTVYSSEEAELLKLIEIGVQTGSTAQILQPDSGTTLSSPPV

[3] = target: Platelet-derived growth factor receptor beta (Homo sapiens, UniProt P09619); assay: Inhibition of PDGFRbeta in human SF539 cells assessed as inhibition of […] tyrosine phosphorylation incubated for 60 mins prior to PDGF-BB-activation measured 10 mins by ELISA
Sequence of Platelet-derived growth factor receptor beta (P09619 whole entry): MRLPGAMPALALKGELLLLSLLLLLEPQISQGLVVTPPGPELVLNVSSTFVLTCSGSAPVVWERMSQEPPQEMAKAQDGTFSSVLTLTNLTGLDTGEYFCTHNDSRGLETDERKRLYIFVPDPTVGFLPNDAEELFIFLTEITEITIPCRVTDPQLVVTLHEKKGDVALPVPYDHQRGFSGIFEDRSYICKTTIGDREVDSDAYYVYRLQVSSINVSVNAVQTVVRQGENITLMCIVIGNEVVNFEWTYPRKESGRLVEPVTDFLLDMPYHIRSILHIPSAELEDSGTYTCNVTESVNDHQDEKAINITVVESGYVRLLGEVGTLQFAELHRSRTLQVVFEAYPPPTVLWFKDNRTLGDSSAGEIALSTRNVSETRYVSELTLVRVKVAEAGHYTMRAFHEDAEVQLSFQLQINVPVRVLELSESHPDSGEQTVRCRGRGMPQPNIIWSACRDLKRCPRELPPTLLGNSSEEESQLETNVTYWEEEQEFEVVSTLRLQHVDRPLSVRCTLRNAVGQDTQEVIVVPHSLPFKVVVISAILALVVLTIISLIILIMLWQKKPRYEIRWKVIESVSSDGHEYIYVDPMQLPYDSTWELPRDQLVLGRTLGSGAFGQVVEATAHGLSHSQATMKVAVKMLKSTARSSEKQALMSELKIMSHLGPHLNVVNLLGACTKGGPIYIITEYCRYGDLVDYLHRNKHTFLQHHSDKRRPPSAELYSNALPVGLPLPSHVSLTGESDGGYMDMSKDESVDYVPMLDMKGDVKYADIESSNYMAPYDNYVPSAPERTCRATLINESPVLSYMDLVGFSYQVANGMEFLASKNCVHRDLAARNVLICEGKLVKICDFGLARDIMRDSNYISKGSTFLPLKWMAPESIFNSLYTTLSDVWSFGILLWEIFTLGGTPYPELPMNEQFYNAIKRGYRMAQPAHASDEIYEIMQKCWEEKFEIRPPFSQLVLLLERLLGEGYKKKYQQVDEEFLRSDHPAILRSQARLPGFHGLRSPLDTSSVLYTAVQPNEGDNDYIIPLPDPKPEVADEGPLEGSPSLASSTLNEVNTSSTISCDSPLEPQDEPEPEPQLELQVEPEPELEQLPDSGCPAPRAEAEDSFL

A-431 = assay: Cytotoxicity against human A431 cells incubated for 12 hrs followed by compound wash out measured 36 hrs by CYQUANT assay; type: functional, cell-based
[4] = target: T1, Epidermal growth factor receptor; assay: Ratio of sunitinib IC50 to compound IC50 for EGFR in human A431 cells; type: cell-based; settings: A-431

Row | IC50 [1] [µM] | IC50 [2] [µM] | IC50 [3] [µM] | Ratio IC50 [4] | Structure (SMILES) | IC50 (A-431) [µM]
1 | > 200 | 86.1 | 172 |  | Nc1nc(Nc2cccc(F)c2)c2c(n1)[nH]c1cccc(Cl)c12 | 
2 | 130 | 41 | 196 |  | COc1cccc(Nc2nc(NC(=O)C(C)(C)C)nc3[nH]c4cccc(Cl)c4c23)c1 | > 250
3 |  | 30.3 | > 200 |  | CC(C)c1ccc(Nc2nc(N)nc3[nH]c4cccc(Cl)c4c23)cc1 | 
4 | 58.7 | 21.3 | > 200 |  | CC(C)(C)C(=O)Nc1nc(Nc2ccc(Cl)cc2)c2c(n1)[nH]c1cccc(Cl)c12 | 
5 | > 200 | 124 | > 200 |  | Nc1nc(Nc2ccccc2)c2c(n1)[nH]c1cccc(Cl)c12 | 193
6 | > 200 | 89.1 | 171 |  | CC(C)(C)C(=O)Nc1nc(Nc2ccc(Cl)cc2F)c2c(n1)[nH]c1cccc(Cl)c12 | > 250
7 | 115 | 192 | 70.6 |  | CC(C)(C)C(=O)Nc1nc(Nc2ccccc2)c2c(n1)[nH]c1cccc(Cl)c12 | 
8 | 82.9 | 70.1 | 50.5 | 2.1 | COc1cccc(Nc2nc(N)nc3[nH]c4cccc(Cl)c4c23)c1 | 
9 |  |  | > 200 |  | Nc1nc(Nc2ccc(Cl)cc2F)c2c(n1)[nH]c1cccc(Cl)c12 | 
10 | 39.2 | 47.8 | > 200 |  | CC(C)c1ccc(Nc2nc(NC(=O)C(C)(C)C)nc3[nH]c4cccc(Cl)c4c23)cc1 | > 250
11 | 63.6 | 13.2 | 196 |  | Nc1nc(Nc2ccc(Cl)cc2)c2c(n1)[nH]c1cccc(Cl)c12 | 
12 | 30.8 | 31.2 | > 200 | 5.5 | CC(C)(C)C(=O)Nc1nc(Nc2cccc(F)c2)c2c(n1)[nH]c1cccc(Cl)c12 | > 250
